From paper PMC5598241 (Toxicology Reports, 2015)

Legend:
[1] = tested on: Sprague Dawley (SD) rats; assay: Liver function tests after single oral PAR overdose with or without GFJ or BGT; format: in vivo, rat; settings: for Liver function tests ALP / Liver function tests ALT / Liver function tests AST: PAR 1725 mg/kg oral alone, mean ± SD, n = 5
[2] = tested on: Sprague Dawley (SD) rats; assay: Full blood count after drug administration; format: in vivo, rat; settings: for thrombocytopenia (low platelet count): all test animals given PAR, GFJ and BGT = groups co-treated with PAR; for Full blood count Hb / Full blood count Hct / Full blood count MCH / Full blood count MCHC / Full blood count MCV / Full blood count Plt / Full blood count RCC / Full blood count WCC: PAR 1725 mg/kg oral alone, mean ± SD, n = 3
[3] = PAR plasma concentration by HPLC; format: in vivo; settings: Sprague Dawley, rat, oral, 1725 mg/kg
[4] = tested on: SD rats; assay: Preliminary determination of the toxic dose of PAR; format: in vivo, rat; settings: preliminary experiment
[5] = tested on: humans; settings: stated without reference; cited from earlier work
[6] = tested on: P450 enzymes CYP1A2, CYP2C9, CYP2C19, CYP2D6 and CYP3A4; settings: furanocoumarin dimers versus monomer; cited from earlier work
[7] = 48 h after dosing, listed as PAR only
[8] = 48 h after dosing, listed as PAR-only
[9] = PAR 1725 mg/kg single dose, 72 h, 3 rats
[10] = PAR 1822 mg/kg single dose, 72 h, 3 rats

With `CC(C)=CCC/C(C)=C/COc1c2ccoc2cc2oc(=O)ccc12` [BGT, bergamottin] the “PAR-induced hepatotoxicity after PAR overdose” value ([1]; co-administered orally with PAR 1725 mg/kg in rats) was “prevented” and the “thrombocytopenia (low platelet count)” value [2] was “moderate”.
For `CC(=O)Nc1ccc(O)cc1` [PAR, paracetamol], the “Liver function tests ALP” value ([1]; 24 h after dosing) was 319 ± 2.1 units/l, the “Liver function tests ALT” value ([1]; 24 h after dosing) was 63 ± 41.3 units/l and the “Liver function tests AST” value ([1]; 24 h after dosing) was 156 ± 76.2 units/l. For the same compound, the “Liver function tests ALP” value ([1]; 48 h after dosing) was 296 ± 148.5 units/l, the “Liver function tests ALT” value [1, 7] was 837 ± 268 units/l and the “Liver function tests AST” value [1, 7] was 1359 ± 405 units/l. The “Liver function tests ALT” value [1, 8] was 837 ± 268.0 units/l, the “Liver function tests AST” value [1, 8] was 1359 ± 404.5 units/l and the “Liver function tests ALP” value ([1]; 72 h after dosing) was 267 ± 38.9 units/l. The “Liver function tests ALT” value ([1]; 72 h after dosing) was 419 ± 690.1 units/l, the “Liver function tests AST” value ([1]; 72 h after dosing) was 512 ± 657.9 units/l and the concentration at 24 h [3] was 5720 ng/mL. For the same compound, the concentration at 48 h [3] was 4450 ng/mL, the concentration at 72 h [3] was 2020 ng/mL and the “Full blood count Hb” value ([2]; 24 h) was 15.2 ± 0. The “Full blood count Hct” value ([2]; 24 h) was 0.439 ± 0, the “Full blood count MCH” value ([2]; 24 h) was 19.9 ± 0 and the “Full blood count MCHC” value ([2]; 24 h) was 34.5 ± 0. For the same compound, the “Full blood count MCV” value ([2]; 24 h) was 57.6 ± 1, the “Full blood count Plt” value ([2]; 24 h) was 1159 ± 81 and the “Full blood count RCC” value ([2]; 24 h) was 7.6 ± 0. The “Full blood count WCC” value ([2]; 24 h) was 4.1 ± 1, the “Full blood count Hb” value ([2]; 48 h) was 15.3 ± 1 and the “Full blood count Hct” value ([2]; 48 h) was 0.464 ± 0. The “Full blood count MCH” value ([2]; 48 h) was 20.4 ± 0, the “Full blood count MCHC” value ([2]; 48 h) was 33.1 ± 0 and the “Full blood count MCV” value ([2]; 48 h) was 61.1 ± 1. For the same compound, the “Full blood count Plt” value ([2]; 48 h) was 310 ± 305, the “Full blood count RCC” value ([2]; 48 h) was 7.5 ± 0 and the “Full blood count WCC” value ([2]; 48 h) was 5.9 ± 0. For the same compound, the “Full blood count Hb” value ([2]; 72 h) was 13.6 ± 2, the “Full blood count Hct” value ([2]; 72 h) was 0.406 ± 0 and the “Full blood count MCH” value ([2]; 72 h) was 19.8 ± 1. The “Full blood count MCHC” value ([2]; 72 h) was 33.7 ± 1, the “Full blood count MCV” value ([2]; 72 h) was 58.9 ± 4 and the “Full blood count Plt” value ([2]; 72 h) was 326 ± 293. For the same compound, the “Full blood count RCC” value ([2]; 72 h) was 6.8 ± 1, the “Full blood count WCC” value ([2]; 72 h) was 4.7 ± 1 and the “thrombocytopenia (low platelet count)” value [2] was “thrombocytopenia”. The “change in liver enzymes” value ([4]; PAR 1000 mg dose, 24, 48 and 72 h) was “no change”, the ALP [4, 9] was 260.0 ± 36 and the AST [4, 9] was 512.0 ± 593. It also gave an ALP [4, 10] of 223.7 ± 82, an ALT [4, 10] of 44.3 ± 3 and an AST [4, 10] of 104.0 ± 14. The “hepatotoxic dose of PAR in humans” value [5] was 100 mg/kg.
For paradisine A, the “enzyme inhibitor potency relative to 6-7-dihydroxybergamottin (DHB)” value [6] is listed as “over 20 times” and the “enzyme inhibitor potency relative to BGT (GF-I-2)” value [6] is listed as “over 100 times”.
For paradisine B, the “enzyme inhibitor potency relative to 6-7-dihydroxybergamottin (DHB)” value [6] is listed as “over 20 times” and the “enzyme inhibitor potency relative to BGT (GF-I-2)” value [6] is listed as “over 100 times”.
